# The source made the active and inactive calls. The rule behind the calls is not given here.
# Key:
# Mu-type opioid receptor [1] = biological target: T1, Mu-type opioid receptor (Homo sapiens, UniProt P35372); test: Agonist activity at MOR (unknown origin) transfected in CHO cells co-expressing Galphaq15 assessed as increase in calcium mobilization by Fluo-4AM dye based assay; type: functional, cell-based
# Mu-type opioid receptor [2] = biological target: T1, Mu-type opioid receptor; test: Agonist activity at MOR (unknown origin) transfected in CHO cells co-expressing Galphaq15 assessed as increase in calcium mobilization by measuring maximal efficacy by Fluo-4AM dye based assay relative to control; type: functional, cell-based; settings: filed as agonist
# [3] = biological target: T2, Kappa-type opioid receptor (Homo sapiens, UniProt P41145); test: Agonist activity at KOR (unknown origin) transfected in CHO cells co-expressing Galphaq15 assessed as increase in calcium mobilization by Fluo-4AM dye based assay; type: functional, cell-based
# T2 sequence (P41145 whole entry): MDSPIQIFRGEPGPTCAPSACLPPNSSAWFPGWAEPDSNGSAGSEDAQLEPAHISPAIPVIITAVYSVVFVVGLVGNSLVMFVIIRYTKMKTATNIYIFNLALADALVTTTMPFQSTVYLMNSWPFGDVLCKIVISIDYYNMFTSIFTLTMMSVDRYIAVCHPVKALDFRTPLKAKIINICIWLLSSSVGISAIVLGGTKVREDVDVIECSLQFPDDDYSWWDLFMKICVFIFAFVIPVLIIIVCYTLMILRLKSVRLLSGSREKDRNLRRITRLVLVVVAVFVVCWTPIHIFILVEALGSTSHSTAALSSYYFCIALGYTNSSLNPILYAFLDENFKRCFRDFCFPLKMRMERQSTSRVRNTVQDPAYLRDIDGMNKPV
# [4] = biological target: T2, Kappa-type opioid receptor; test: Agonist activity at KOR (unknown origin) transfected in CHO cells co-expressing Galphaq15 assessed as increase in calcium mobilization by measuring maximal efficacy by Fluo-4AM dye based assay relative to control; type: functional, cell-based; settings: filed as agonist
# [5] = biological target: T3, Delta-type opioid receptor (Homo sapiens, UniProt P41143); test: Agonist activity at DOR (unknown origin) transfected in CHO cells co-expressing Galphaq15 assessed as increase in calcium mobilization by Fluo-4AM dye based assay; type: functional, cell-based
# T3 sequence (P41143 whole entry): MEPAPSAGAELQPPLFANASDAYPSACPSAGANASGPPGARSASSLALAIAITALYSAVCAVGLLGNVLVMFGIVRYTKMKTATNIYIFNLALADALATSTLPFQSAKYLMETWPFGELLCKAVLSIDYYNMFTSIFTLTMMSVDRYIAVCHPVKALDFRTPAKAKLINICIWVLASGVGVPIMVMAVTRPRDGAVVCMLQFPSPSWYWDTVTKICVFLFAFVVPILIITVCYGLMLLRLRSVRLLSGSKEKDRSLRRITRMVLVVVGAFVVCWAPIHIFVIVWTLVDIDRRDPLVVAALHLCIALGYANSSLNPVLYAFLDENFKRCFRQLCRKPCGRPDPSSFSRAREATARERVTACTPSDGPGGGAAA
# [6] = biological target: T3, Delta-type opioid receptor; test: Agonist activity at DOR (unknown origin) transfected in CHO cells co-expressing Galphaq15 assessed as increase in calcium mobilization by measuring maximal efficacy by Fluo-4AM dye based assay relative to control; type: functional, cell-based; settings: filed as agonist
# [7] = Agonist activity at NPFF1R (unknown origin) transfected in CHO cells co-expressing Galphaq15 assessed as increase in calcium mobilization by measuring maximal efficacy by Fluo-4AM dye based assay relative to control; type: functional, cell-based; settings: Homo sapiens, filed as agonist
# [8] = biological target: T4, Neuropeptide FF receptor 2 (Homo sapiens, UniProt Q9Y5X5); test: Agonist activity at NPFF2R (unknown origin) transfected in HEK293 cells co-expressing Galphaq15 assessed as increase in calcium mobilization by Fluo-4AM dye based assay; type: functional, cell-based
# T4 sequence (Q9Y5X5 whole entry): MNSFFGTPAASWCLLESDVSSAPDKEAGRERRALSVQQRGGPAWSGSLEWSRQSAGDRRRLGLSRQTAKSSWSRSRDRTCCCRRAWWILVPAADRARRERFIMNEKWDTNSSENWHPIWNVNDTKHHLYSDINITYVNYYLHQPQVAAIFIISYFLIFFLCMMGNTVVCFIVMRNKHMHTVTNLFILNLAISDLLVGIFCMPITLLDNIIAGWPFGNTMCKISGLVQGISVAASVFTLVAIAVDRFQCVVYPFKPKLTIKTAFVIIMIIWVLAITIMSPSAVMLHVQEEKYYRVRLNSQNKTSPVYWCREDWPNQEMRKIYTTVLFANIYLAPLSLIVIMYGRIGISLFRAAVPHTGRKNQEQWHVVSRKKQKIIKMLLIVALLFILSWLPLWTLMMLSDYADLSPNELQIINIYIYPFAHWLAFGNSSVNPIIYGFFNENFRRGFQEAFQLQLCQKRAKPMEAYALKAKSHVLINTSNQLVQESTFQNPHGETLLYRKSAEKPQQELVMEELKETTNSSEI
# [9] = biological target: T4, Neuropeptide FF receptor 2; test: Agonist activity at NPFF2R (unknown origin) transfected in HEK293 cells co-expressing Galphaq15 assessed as increase in calcium mobilization by measuring maximal efficacy by Fluo-4AM dye based assay relative to control; type: functional, cell-based; settings: filed as agonist
# [10] = Metabolic stability in mouse plasma assessed as degradation half life at 10 mM measured upto 480 mins by RP-HPLC analysis; type: ADME, cell-free
# [11] = Metabolic stability in mouse brain homogenate assessed as degradation half life at 10 mM measured upto 480 mins by RP-HPLC analysis; type: ADME, tissue-based
# Mus musculus [12] = test: Antinociceptive activity in Kunming mouse assessed as changes in tail flick latency by measuring maximal possible effect at 26.7 nmol/kg, sc measured after 20 mins by tail-flick test; type: functional
# Mus musculus [13] = test: Antinociceptive activity in Kunming mouse assessed as changes in tail flick latency by measuring maximal possible effect at 26.7 nmol/kg, sc measured after 30 mins by tail-flick test; type: functional; settings: 0.5 h
# Mus musculus [14] = test: Antinociceptive activity in Kunming mouse assessed as changes in tail flick latency by measuring maximal possible effect at 26.7 nmol/kg, sc measured after 60 mins by tail-flick test; type: functional; settings: 1 h
# Mus musculus [15] = test: Antinociceptive activity in Kunming mouse assessed as changes in tail flick latency by measuring maximal possible effect at 26.7 nmol/kg, sc measured after 120 mins by tail-flick test; type: functional; settings: 2 h
# Mus musculus [16] = test: Antinociceptive activity in Kunming mouse assessed as changes in tail flick latency by measuring maximal possible effect at 26.7 nmol/kg, sc measured after 240 mins by tail-flick test; type: functional; settings: 4 h
# Mus musculus [17] = test: Antinociceptive activity in Kunming mouse assessed as changes in tail flick latency by measuring time duration of antinociceptive effect at 26.7 nmol/kg, sc by tail-flick test; type: functional
# Mus musculus [18] = test: Antinociceptive activity in Kunming mouse assessed as changes in tail flick latency at 26.7 nmol/kg, sc pretreated with naloxone methiodide at 5 nmol, icv for 10 mins followed by compound addition and measured for 360 mins by tail-flick test; type: functional, organism-based
# Mus musculus [19] = test: Antinociceptive activity in Kunming mouse assessed as changes in tail flick latency by measuring maximal possible effect at 0.88 nmol/kg, sc measured after 20 mins by tail-flick test; type: functional
# Mus musculus [20] = test: Antinociceptive activity in Kunming mouse assessed as changes in tail flick latency by measuring maximal possible effect at 0.88 nmol/kg, sc measured after 30 mins by tail-flick test; type: functional; settings: 0.5 h
# Mus musculus [21] = test: Antinociceptive activity in Kunming mouse assessed as changes in tail flick latency by measuring maximal possible effect at 0.88 nmol/kg, sc measured after 60 mins by tail-flick test; type: functional; settings: 1 h
# Mus musculus [22] = test: Antinociceptive activity in Kunming mouse assessed as changes in tail flick latency by measuring maximal possible effect at 0.88 nmol/kg, sc measured after 120 mins by tail-flick test; type: functional; settings: 2 h
# Mus musculus [23] = test: Antinociceptive activity in Kunming mouse assessed as changes in tail flick latency by measuring maximal possible effect at 0.88 nmol/kg, sc measured after 240 mins by tail-flick test; type: functional; settings: 4 h
# Mus musculus [24] = test: Antinociceptive activity in Kunming mouse assessed as changes in tail flick latency by measuring time duration of antinociceptive effect at 0.88 nmol/kg, sc by tail-flick test; type: functional
# Mus musculus [25] = test: Antinociceptive activity in sc dosed Kunming mouse assessed as changes in tail flick latency measured after 10 to 360 mins by tail-flick test; type: functional; settings: time 10-360 min
# Mus musculus [26] = test: Antinociceptive activity in Kunming mouse assessed as changes in tail flick latency at 0.88 nmol/kg, sc pretreated with naloxone methiodide at 5 nmol, icv for 10 mins followed by compound addition and measured for 360 mins by tail-flick test; type: functional, organism-based
# Mus musculus [27] = test: Antinociceptive activity in Kunming mouse assessed as changes in tail flick latency at 0.88 nmol/kg, sc pretreated with beta-funaltrexamine at 10 nmol, icv for 4 hrs followed by compound addition and measured for 360 mins by tail-flick test; type: functional, organism-based
# Mus musculus [28] = test: Antinociceptive activity in Kunming mouse assessed as changes in tail flick latency at 0.88 nmol/kg, sc pretreated with nor-binaltorphimine at 10 nmol, icv for 30 mins followed by compound addition and measured for 360 mins by tail-flick test; type: functional, organism-based
# Mus musculus [29] = test: Antinociceptive activity in Kunming mouse assessed as changes in tail flick latency at 0.88 nmol/kg, sc pretreated with naltrindole at 10 nmol, icv for 10 mins followed by compound addition and measured for 360 mins by tail-flick test; type: functional, organism-based
# Mus musculus [30] = test: Antinociceptive activity in Kunming mouse assessed as changes in tail flick latency at 0.009 nmol/kg, sc pretreated with 1-adamantanecarbonyl-RF-NH2 at 10 nmol, icv for 5 mins followed by compound addition and measured for 360 mins by tail-flick test; type: functional, organism-based
# [31] = Ratio of AUC in brain to plasma in Kunming mouse at 1 mg/kg, iv measured upto 240 mins by LC-MS/MS analysis; type: ADME, organism-based; settings: read-out: BPR
# [32] = AUC in Kunming mouse plasma at 1 mg/kg, iv measured upto 240 mins by LC-MS/MS analysis; type: ADME, organism-based; parameters: time < 240 min, dose 1 mg/kg, route iv
# [33] = AUC in Kunming mouse brain at 1 mg/kg, iv measured upto 240 mins by LC-MS/MS analysis; type: ADME, organism-based; parameters: time < 240 min, dose 1 mg/kg, route iv; settings: in vivo, 4 h
# Mus musculus [34] = test: Antinociceptive activity in Kunming mouse assessed as changes in tail flick latency by measuring time duration of action at 0.88 to 8.82 nmol/kg, po measured for 360 mins by tail-flick test; type: functional; settings: dose 0.88-8.82 nmol/kg, 6 h
# Mus musculus [35] = test: Antinociceptive activity in po dosed Kunming mouse assessed as changes in tail flick latency measured for 360 mins by tail-flick test; type: functional; settings: for ED50: 6 h
# Mus musculus [36] = test: Antinociceptive activity in Kunming mouse assessed as changes in tail flick latency by measuring time duration of action at 1 to 10 pmol, icv measured for 360 mins by tail-flick test; type: functional; settings: dose 1-10 pmol, 6 h
# Mus musculus [37] = test: Antinociceptive activity in icv dosed Kunming mouse assessed as changes in tail flick latency measured for 360 mins by tail-flick test; type: functional; settings: for ED50: 6 h
# [38] = Induction of antinociceptive tolerance in Kunming mouse assessed as decrease in tail flick latency at 0.88 nmol/kg, sc administered once daily for 8 days and measured once daily by tail-flick test; type: toxicity, organism-based; settings: in vivo, 192 h, time 8 day
# [39] = Toxicity in Kunming mouse assessed as effect on motor coordination at 88 nmol/kg, sc measured after 15 to 45 mins by rotarod test; type: organism-based; settings: in vivo, time 15-45 min
# [40] = Toxicity in sc dosed 16 hrs fasted Kunming mouse assessed as constipation by measuring inhibition of gastrointestinal transit administered for 15 mins followed by charcoal meal and measured after 30 mins; type: organism-based; settings: in vivo, 0.75 h, time 45 min
# [41] = Toxicity in Kunming mouse assessed as effect on locomotor activity at 88 nmol/kg, sc measured after 20 to 180 mins by open field test; type: organism-based; settings: in vivo, time 20-180 min
# [42] = Toxicity in Kunming mouse assessed as addiction behavior at 88 nmol/kg, sc administered for 3 days starting from day 2 and measured on day 5 by conditioned place preference test; type: organism-based; settings: in vivo, 96 h, time 4 day
# [43] = Toxicity in sc dosed Kunming mouse assessed as effect on naloxone-induced jumping response at 88 nmol/kg, sc administered every 8 hrs for 3 days followed by naloxone administration at 2 hrs post last dose and measured immediately by Nal-precipitated withdraw test; type: organism-based; settings: in vivo, 74 h
# [44] = Toxicity in Kunming mouse assessed as reduction in respiration frequency at 88 nmol/kg, sc measured upto 100 mins by whole-body plethysmography; type: organism-based; settings: in vivo, 1.667 h
# T1 sequence (P35372 whole entry): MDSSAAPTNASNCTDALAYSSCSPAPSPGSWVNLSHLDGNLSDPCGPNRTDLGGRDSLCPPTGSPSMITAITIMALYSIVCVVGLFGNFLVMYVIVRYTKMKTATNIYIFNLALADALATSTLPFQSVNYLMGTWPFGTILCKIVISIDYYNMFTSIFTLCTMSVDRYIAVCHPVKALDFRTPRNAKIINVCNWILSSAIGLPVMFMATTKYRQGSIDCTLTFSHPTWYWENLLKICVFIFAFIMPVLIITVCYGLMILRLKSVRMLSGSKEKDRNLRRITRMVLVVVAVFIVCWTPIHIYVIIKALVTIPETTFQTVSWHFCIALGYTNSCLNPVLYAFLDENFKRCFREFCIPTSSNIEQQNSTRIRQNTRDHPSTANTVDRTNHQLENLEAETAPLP
SMILES,EC50 (Mu-type opioid receptor [1]) [nM],Emax (Mu-type opioid receptor [2]) [%],EC50 [3] [nM],Emax [4] [%],EC50 [5] [nM],Emax [6] [%],Emax [7] [%],EC50 [8] [nM],Emax [9] [%],half-life at 10000 µM [10] [h],half-life at 10000 µM [11] [h],MPE (Mus musculus [19]) [%],MPE (Mus musculus [20]) [%],MPE (Mus musculus [21]) [%],MPE (Mus musculus [22]) [%],MPE (Mus musculus [23]) [%],Time (Mus musculus [24]) [min],Activity (Mus musculus [25]),ED50 (Mus musculus [25]) [µmol/kg],Activity (Mus musculus [26]),other results
CN1C(=O)CNC(=O)[C@H](N[C@@H](Cc2ccc(O)cc2)C(=O)O)CCC/C=C/C[C@@H](C(=O)N2CCC[C@H]2C(=O)N[C@@H](CCC(N)=O)C(=O)N[C@@H](CCCNC(=N)N)C(=O)N[C@@H](Cc2ccccc2)C(N)=O)NC(=O)[C@@H]1Cc1ccccc1,38.9,120,124,98.3,27.7,93,129,52.3,77.9,1.01,1.52,,,,,,,,,,MPE (Mus musculus [12]): 94.2%; MPE (Mus musculus [13]): 96%; MPE (Mus musculus [14]): 81.9%; MPE (Mus musculus [15]): 65.5%; MPE (Mus musculus [16]): 44.7%; Time (Mus musculus [17]): 360 min; Activity (Mus musculus [18]): inactive
CN1C(=O)CNC(=O)[C@H](N[C@@H](Cc2ccc(O)cc2)C(=O)O)CCCC/C=C\C[C@@H](C(=O)N2CCC[C@H]2C(=O)N[C@@H](CCC(N)=O)C(=O)N[C@@H](CCCNC(=N)N)C(=O)N[C@@H](Cc2ccccc2)C(N)=O)NC(=O)[C@@H]1Cc1ccccc1,2.8,98.1,169,99.2,56.2,81.9,93.7,144,89.2,0.447,1.78,89.8,89.5,85.4,58.9,46.2,360,Dose-Dependent Effect,1e-05,inactive,Activity (Mus musculus [27]): inactive; Activity (Mus musculus [28]): inactive; Activity (Mus musculus [29]): Active; Activity (Mus musculus [30]): Active; Kp at 4 h [31]: 1.35; AUC at 4 h [32]: 2270 ng·h/mL; AUC [33]: 183.2 µg·min/g; Time (Mus musculus [34]): <=360 min; Activity (Mus musculus [35]): Dose-Dependent Effect; ED50 (Mus musculus [35]): 0.00135 µmol/kg; Time (Mus musculus [36]): <=360 min; Activity (Mus musculus [37]): Dose-Dependent Effect; ED50 (Mus musculus [37]): 1.38 pmol; Activity [38]: Non-Toxic; Activity [39]: Non-Toxic; ED50 [40]: 84 nmol/kg; Activity [41]: Non-Toxic; Activity [42]: Non-Toxic; Activity [43]: Non-Toxic; Activity [44]: Non-Toxic
CN1C(=O)CNC(=O)[C@H](N[C@@H](Cc2ccc(O)cc2)C(=O)O)CCCC/C=C/C[C@@H](C(=O)N2CCC[C@H]2C(=O)N[C@@H](CCC(N)=O)C(=O)N[C@@H](CCCNC(=N)N)C(=O)N[C@@H](Cc2ccccc2)C(N)=O)NC(=O)[C@@H]1Cc1ccccc1,15.9,95,346,106,228,77.3,88.1,33.1,119,0.63,2.98,89.9,77.2,80.5,72.8,43.5,360,Dose-Dependent Effect,2e-05,inactive,Activity (Mus musculus [27]): inactive; Activity (Mus musculus [28]): inactive; Activity (Mus musculus [29]): Active; Activity (Mus musculus [30]): Active; Time (Mus musculus [34]): <=360 min; Activity (Mus musculus [35]): Dose-Dependent Effect; ED50 (Mus musculus [35]): 0.00195 µmol/kg; Time (Mus musculus [36]): <=360 min; Activity (Mus musculus [37]): Dose-Dependent Effect; ED50 (Mus musculus [37]): 1.82 pmol; Activity [38]: Non-Toxic; Activity [39]: Non-Toxic; ED50 [40]: 95.4 nmol/kg; Activity [41]: Non-Toxic; Activity [42]: Non-Toxic; Activity [43]: Non-Toxic; Activity [44]: Non-Toxic

# — ChEMBL document CHEMBL5356973 (J Med Chem, 2023)
